The source of these data is PubChem BioAssay (NCI).

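In this assay, cells in 96-well plates receive the compound at five concentrations for 48 hours. Endpoints are linearly interpolated between the surrounding concentrations. TGI is the concentration that stops growth completely.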 Where a SMILES comes first, the peptide text is derived from it. [ ]: non-standard residue; d: D form. The star is where a group is joined. mTyr = N[CH](Cc1cccc(O)c1)C(=O)O; Cbz = O=C(OCc1ccccc1)*; OBn = c1ccc(CO*)cc1

Among the test systems are HL-60(TB) leukemia; NCI-H23 lung; SN12C renal; SNB-19 CNS; UO-31 renal; BT-549 breast; UACC-257 melanoma; NCI-H460 lung; UACC-62 melanoma; HCT-15 colon.
Holding throughout (test): NCI tumour cell line growth inhibition, 48 h

In the case of `Cc1ccc2nc(NC(=O)/C(Cc3nc4ccc(Cl)cc4[nH]c3=O)=N\NC(C)(C)C)sc2c1`, the TGI with HL-60(TB) leukemia, with NCI-H23 lung, with SN12C renal, with SNB-19 CNS, in the assay on UO-31 renal and with BT-549 breast was over 100 µM throughout. The TGI with UACC-257 melanoma, in the assay with NCI-H460 lung, in the assay on UACC-62 melanoma and in the assay on HCT-15 colon was over 100 µM in each case.

Turning to `CC(C)CN=C(N)N=C(N)N`, the TGI in the assay on HL-60(TB) leukemia, in the assay with NCI-H23 lung, in the assay with SN12C renal, with SNB-19 CNS, in the assay on UO-31 renal and in the assay on BT-549 breast was over 100 µM throughout. Further, the TGI in the assay with UACC-257 melanoma, with NCI-H460 lung, in the assay on UACC-62 melanoma and in the assay with HCT-15 colon was over 100 µM each time.

Take `CCC(c1c[nH]c2ccc(Br)cc12)c1c[nH]c2ccc(Br)cc12`: the TGI came out at 16.3 µM with HL-60(TB) leukemia; 11 µM in the assay on NCI-H23 lung; 15.4 µM in the assay with SN12C renal; 21.4 µM in the assay with SNB-19 CNS; 18.7 µM with UO-31 renal; 23.3 µM in the assay on BT-549 breast. Further, the TGI in the assay on UACC-257 melanoma stood at 23.9 µM; with NCI-H460 lung, 6.82 µM; in the assay on UACC-62 melanoma it was 22.2 µM; in the assay on HCT-15 colon, 15 µM.

With `COC(=O)C(Cc1cccc(O)c1)NC(=O)C(CC(=O)OCc1ccccc1)NC(=O)OCc1ccccc1` (stereo not given) (Cbz-Asp(OBn)-[mTyr]-OMe; configuration not given here), the TGI in the assay with HL-60(TB) leukemia, in the assay on NCI-H23 lung, in the assay on SN12C renal, with SNB-19 CNS, with UO-31 renal and in the assay on BT-549 breast was over 100 µM each time. Further, the TGI was over 100 µM in the assay with UACC-257 melanoma, 35.6 µM in the assay on NCI-H460 lung, over 100 µM in the assay on UACC-62 melanoma and over 100 µM in the assay on HCT-15 colon.
